Assay results: ChEMBL document CHEMBL4823275, “Structure-based molecular hybridization design of Keap1-Nrf2 inhibitors as novel protective agents of acute lung injury” (Eur J Med Chem, 2021)
Activity calls are given as the source filed them. The rule behind the calls is not given here.

Columns and labels:
[1] = Cytotoxicity against mouse peritoneal macrophages assessed as reduction in cell viability measured after 24 hrs by CCK8 assay; format: cell-based, Peritoneal macrophage
Keap1/Nrf2 = Keap1/Nrf2 (Homo sapiens, UniProt Q14145); assay: Inhibition of Keap1-Nrf2 (unknown origin) interaction measured after 60 mins by Fluorescence polarization assay; format: protein assay
Keap1/Nrf2, sequence (Q16236 whole entry): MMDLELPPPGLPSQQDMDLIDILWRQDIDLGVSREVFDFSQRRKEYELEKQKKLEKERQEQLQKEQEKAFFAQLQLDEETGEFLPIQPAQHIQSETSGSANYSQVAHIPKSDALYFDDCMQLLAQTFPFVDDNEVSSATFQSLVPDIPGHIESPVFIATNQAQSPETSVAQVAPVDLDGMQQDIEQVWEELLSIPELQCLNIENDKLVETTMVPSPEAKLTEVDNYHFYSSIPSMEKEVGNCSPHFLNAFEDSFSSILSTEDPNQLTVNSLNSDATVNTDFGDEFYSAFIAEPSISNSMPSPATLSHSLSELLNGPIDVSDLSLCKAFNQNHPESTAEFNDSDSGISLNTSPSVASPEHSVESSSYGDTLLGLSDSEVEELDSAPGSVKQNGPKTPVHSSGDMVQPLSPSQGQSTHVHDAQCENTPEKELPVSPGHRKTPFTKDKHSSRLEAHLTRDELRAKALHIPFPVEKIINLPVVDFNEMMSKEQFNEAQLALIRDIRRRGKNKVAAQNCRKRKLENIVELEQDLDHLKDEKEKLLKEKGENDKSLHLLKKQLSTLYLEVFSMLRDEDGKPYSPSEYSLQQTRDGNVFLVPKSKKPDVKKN
Keap1/Nrf2, sequence (Q14145 whole entry): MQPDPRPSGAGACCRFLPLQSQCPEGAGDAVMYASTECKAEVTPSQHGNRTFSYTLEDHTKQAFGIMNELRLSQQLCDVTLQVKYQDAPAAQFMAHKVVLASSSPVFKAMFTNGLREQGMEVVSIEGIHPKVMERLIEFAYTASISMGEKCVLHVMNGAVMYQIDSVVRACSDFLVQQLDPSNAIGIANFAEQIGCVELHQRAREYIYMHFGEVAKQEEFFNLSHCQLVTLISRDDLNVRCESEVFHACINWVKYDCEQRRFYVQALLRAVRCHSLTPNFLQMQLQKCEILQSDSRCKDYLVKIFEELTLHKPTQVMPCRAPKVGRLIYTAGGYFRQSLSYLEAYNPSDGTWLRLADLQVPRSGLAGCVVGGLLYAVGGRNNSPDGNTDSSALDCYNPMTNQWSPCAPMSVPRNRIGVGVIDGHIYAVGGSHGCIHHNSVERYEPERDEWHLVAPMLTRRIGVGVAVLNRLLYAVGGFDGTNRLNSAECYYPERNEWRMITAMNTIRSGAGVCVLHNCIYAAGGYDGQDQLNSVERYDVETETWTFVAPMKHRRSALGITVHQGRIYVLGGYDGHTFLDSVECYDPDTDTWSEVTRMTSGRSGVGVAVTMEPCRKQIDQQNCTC

Peritoneal macrophage [2] = assay: Antiinflammatory activity against mouse peritoneal macrophages assessed as inhibition of LPS-induced NO production at 10 uM measured after 24 hrs by Griess assay; format: functional, cell-based
Peritoneal macrophage [3] = assay: Antiinflammatory activity against mouse peritoneal macrophages assessed as reduction in LPS-induced TNFalpha production at 10 uM measured after 24 hrs by ELISA; format: functional, cell-based
[4] = biological target: T1, Kelch-like ECH-associated protein 1/Nuclear factor erythroid 2-related factor 2 (Mus musculus) (UniProt Q60795+Q9Z2X8); assay: Inhibition of Keap1-Nrf2 interaction in mouse peritoneal macrophages assessed as increase in nuclear translocation of Nrf2 by measuring decrease in cytosolic Nrf2 level at 10 uM measured after 3 to 6 hrs by Western blot analysis; format: subcellular; conditions: Peritoneal macrophage, Cytosol, time 3-6 hrs
T1 sequence (Q60795 whole entry, looked up): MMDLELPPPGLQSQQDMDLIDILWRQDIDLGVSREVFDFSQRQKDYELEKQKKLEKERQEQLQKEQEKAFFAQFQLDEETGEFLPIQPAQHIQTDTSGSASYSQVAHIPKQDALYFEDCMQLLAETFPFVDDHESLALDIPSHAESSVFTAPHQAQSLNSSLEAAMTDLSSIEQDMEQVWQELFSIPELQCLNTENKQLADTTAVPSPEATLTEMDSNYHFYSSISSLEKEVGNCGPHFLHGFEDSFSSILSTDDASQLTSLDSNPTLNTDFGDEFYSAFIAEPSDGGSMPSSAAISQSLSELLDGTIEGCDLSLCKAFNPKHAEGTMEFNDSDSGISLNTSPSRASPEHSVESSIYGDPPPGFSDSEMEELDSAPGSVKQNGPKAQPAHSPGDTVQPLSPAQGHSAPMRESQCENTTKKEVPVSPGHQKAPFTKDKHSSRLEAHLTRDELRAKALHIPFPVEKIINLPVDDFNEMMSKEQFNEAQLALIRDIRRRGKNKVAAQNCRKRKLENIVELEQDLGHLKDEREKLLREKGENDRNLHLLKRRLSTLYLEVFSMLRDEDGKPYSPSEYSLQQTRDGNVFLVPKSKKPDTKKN
T1 sequence (Q9Z2X8 whole entry, looked up): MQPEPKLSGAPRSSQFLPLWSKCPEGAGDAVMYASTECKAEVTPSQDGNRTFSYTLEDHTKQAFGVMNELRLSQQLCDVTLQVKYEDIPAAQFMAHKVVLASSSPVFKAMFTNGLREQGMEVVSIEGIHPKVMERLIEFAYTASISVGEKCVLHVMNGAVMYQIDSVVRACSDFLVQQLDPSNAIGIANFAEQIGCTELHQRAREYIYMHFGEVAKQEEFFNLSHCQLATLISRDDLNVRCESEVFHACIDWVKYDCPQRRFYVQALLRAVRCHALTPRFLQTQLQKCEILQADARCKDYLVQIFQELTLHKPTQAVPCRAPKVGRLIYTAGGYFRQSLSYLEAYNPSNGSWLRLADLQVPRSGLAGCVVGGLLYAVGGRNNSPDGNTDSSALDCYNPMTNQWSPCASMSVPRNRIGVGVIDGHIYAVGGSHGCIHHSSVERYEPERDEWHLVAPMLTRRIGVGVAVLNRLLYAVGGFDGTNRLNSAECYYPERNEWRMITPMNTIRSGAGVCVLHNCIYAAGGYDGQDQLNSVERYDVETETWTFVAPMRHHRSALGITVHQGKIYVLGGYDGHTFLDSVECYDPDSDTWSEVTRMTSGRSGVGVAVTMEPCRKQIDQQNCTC

Peritoneal macrophage [5] = assay: Antiinflammatory activity against mouse peritoneal macrophages assessed as inhibition of LPS-stimulated ROS production at 10 uM incubated for 6 hrs by DCFH-DA staining based fluorescence analysis; format: functional, cell-based
[6] = biological target: T1, Kelch-like ECH-associated protein 1/Nuclear factor erythroid 2-related factor 2 (Mus musculus); assay: Inhibition of Keap1-Nrf2 interaction in mouse peritoneal macrophages assessed as increase in nuclear translocation of Nrf2 by measuring increase in nuclear Nrf2 level at 10 uM measured after 3 to 6 hrs by Western blot analysis; format: subcellular; conditions: Peritoneal macrophage, Nucleus, time 3-6 hrs
[7] = biological target: T1, Kelch-like ECH-associated protein 1/Nuclear factor erythroid 2-related factor 2 (Mus musculus); assay: Inhibition of Keap1-Nrf2 interaction in mouse peritoneal macrophages assessed as upregulation of NQO1 protein expression at 10 uM by Western blot analysis; format: tissue-based; conditions: Peritoneal macrophage, time 1-6 hrs, TDE = time-dependent effect
[8] = biological target: T1, Kelch-like ECH-associated protein 1/Nuclear factor erythroid 2-related factor 2 (Mus musculus); assay: Inhibition of Keap1-Nrf2 interaction in mouse peritoneal macrophages assessed as upregulation of HO-1 protein expression at 10 uM by Western blot analysis; format: tissue-based; conditions: Peritoneal macrophage, time 1-6 hrs, TDE = time-dependent effect
Mus musculus [9] = assay: Anti-inflammatory activity against LPS-induced acute lung injury C57BL/6 mouse model assessed as reduction in LPS-induced IL-6 mRNA expression in lungs at 5 to 20 mg/kg, ip treated 0.5 hrs before LPS stimulation and measured after 6 hrs by RT-PCR analysis; format: functional, organism-based; conditions: dose 5-20 mg/kg, time 6.5 hrs
Mus musculus [10] = assay: In vivo inhibition of Keap1-Nrf2 interaction in LPS-induced acute lung injury C57BL/6 mouse model assessed as increase in Nrf2 nuclear translocation in lungs by measuring increase in nuclear Nrf2 level treated intraperitoneally at 0.5 hrs before LPS stimulation and measured after 6 hrs by western blot analysis; format: functional, organism-based; conditions: dose 5-20 mg/kg, time 6.5 hrs
Mus musculus [11] = assay: Anti-inflammatory activity against LPS-induced acute lung injury C57BL/6 mouse model assessed as reduction in LPS-induced TNF-alpha secretion in BALF at 5 to 20 mg/kg, ip treated 0.5 hrs before LPS stimulation and measured after 6 hrs by ELISA; format: functional, organism-based; conditions: dose 5-20 mg/kg, time 6.5 hrs
Mus musculus [12] = assay: Antiinflammatory activity against LPS-induced acute lung injury C57BL/6 mouse model assessed as mild alveolar thickening with less bleeding points/congestion in lungs at 5 to 20 mg/kg, ip treated 0.5 hrs before LPS stimulation and measured after 6 hrs by hematoxylin and eosin staining based microscopic analysis; format: functional, organism-based; conditions: dose 5-20 mg/kg, time 6.5 hrs
Mus musculus [13] = assay: Anti-inflammatory activity against LPS-induced acute lung injury C57BL/6 mouse model assessed as reduction in LPS-induced TNF-alpha mRNA expression in lungs at 5 to 20 mg/kg, ip treated 0.5 hrs before LPS stimulation and measured after 6 hrs by RT-PCR analysis; format: functional, organism-based; conditions: dose 5-20 mg/kg, time 6.5 hrs
Mus musculus [14] = assay: Anti-inflammatory activity against LPS-induced acute lung injury C57BL/6 mouse model assessed as reduction in LPS-induced IL-1 beta mRNA expression in lungs at 5 to 20 mg/kg, ip treated 0.5 hrs before LPS stimulation and measured after 6 hrs by RT-PCR analysis; format: functional, organism-based; conditions: dose 5-20 mg/kg, time 6.5 hrs
Mus musculus [15] = assay: In vivo inhibition of Keap1-Nrf2 interaction in LPS-induced acute lung injury C57BL/6 mouse model assessed as increase in Nrf2 nuclear translocation in lungs by measuring decrease in cytosolic Nrf2 level treated intraperitoneally at 0.5 hrs before LPS stimulation and measured after 6 hrs by western blot analysis; format: functional, organism-based; conditions: dose 5-20 mg/kg, time 6.5 hrs
Mus musculus [16] = assay: Anti-inflammatory activity against LPS-induced acute lung injury C57BL/6 mouse model assessed as reduction in LPS-induced IL-1 beta secretion in BALF at 5 to 20 mg/kg, ip treated 0.5 hrs before LPS stimulation and measured after 6 hrs by ELISA; format: functional, organism-based; conditions: dose 5-20 mg/kg, time 6.5 hrs
Mus musculus [17] = assay: Antiinflammatory activity against LPS-induced acute lung injury C57BL/6 mouse model assessed as intact alveolar structure with reduced inflammatory cells infiltration in lungs at 5 to 20 mg/kg, ip treated 0.5 hrs before LPS stimulation and measured after 6 hrs by hematoxylin and eosin staining based microscopic analysis; format: functional, organism-based; conditions: dose 5-20 mg/kg, time 6.5 hrs

COc1ccc(S(=O)(=O)N(CC(N)=O)c2ccc(N(CC(N)=O)S(=O)(=O)c3ccc(SCCOCCOCCN=C=S)cc3)c3ccccc23)cc1
CC50 at 24 h [1]: > 10 µM
Kd (Keap1/Nrf2): > 10 µM

COc1ccc(S(=O)(=O)N(CC(N)=O)c2ccc(N(CC(N)=O)S(=O)(=O)c3ccc(S(=O)(=O)CCCCCN=C=S)cc3)c3ccccc23)cc1
CC50 at 24 h [1]: > 10 µM
Kd (Keap1/Nrf2): > 10 µM

COc1ccc(S(=O)(=O)N(CC(N)=O)c2ccc(N(CC(N)=O)S(=O)(=O)c3ccc(S(=O)(=O)CCCCN=C=S)cc3)c3ccccc23)cc1
CC50 at 24 h [1]: > 10 µM
Kd (Keap1/Nrf2): > 10 µM

COc1ccc(S(=O)(=O)N(CC(N)=O)c2ccc(N(CC(N)=O)S(=O)(=O)c3ccc(SCCCN=C=S)cc3)c3ccccc23)cc1
CC50 at 24 h [1]: > 10 µM
Kd (Keap1/Nrf2): > 10 µM

COc1ccc(S(=O)(=O)N(CC(N)=O)c2ccc(N(CC(N)=O)S(=O)(=O)c3ccc(SCCN=C=S)cc3)c3ccccc23)cc1
CC50 at 24 h [1]: > 10 µM
Kd (Keap1/Nrf2): 3.5 µM

COc1ccc(S(=O)(=O)N(CC(N)=O)c2ccc(N(CC(N)=O)S(=O)(=O)c3ccc(SCCCCN=C=S)cc3)c3ccccc23)cc1
CC50 at 24 h [1]: > 10 µM
Kd (Keap1/Nrf2): > 10 µM

COc1ccc(S(=O)(=O)N(CC(N)=O)c2ccc(N(CC(N)=O)S(=O)(=O)c3ccc([S+]([O-])CCCCCN=C=S)cc3)c3ccccc23)cc1 (centres undefined)
CC50 at 24 h [1]: > 10 µM
Kd (Keap1/Nrf2): 1.83 µM

COc1ccc(S(=O)(=O)N(CC(N)=O)c2ccc(N(CC(N)=O)S(=O)(=O)c3ccc(SCCOCCOCCOCCN=C=S)cc3)c3ccccc23)cc1
CC50 at 24 h [1]: > 10 µM
Kd (Keap1/Nrf2): > 10 µM

COc1ccc(S(=O)(=O)N(CC(N)=O)c2ccc(N(CC(N)=O)S(=O)(=O)c3ccc(S(=O)(=O)CCCN=C=S)cc3)c3ccccc23)cc1
CC50 at 24 h [1]: > 10 µM
Kd (Keap1/Nrf2): > 10 µM

COc1ccc(S(=O)(=O)N(CC(N)=O)c2ccc(N(CC(N)=O)S(=O)(=O)c3ccc(S(=O)(=O)CCOCCOCCOCCN=C=S)cc3)c3ccccc23)cc1
CC50 at 24 h [1]: > 10 µM
Kd (Keap1/Nrf2): > 10 µM

COc1ccc(S(=O)(=O)N(CC(N)=O)c2ccc(N(CC(N)=O)S(=O)(=O)c3ccc([S+]([O-])CCCCN=C=S)cc3)c3ccccc23)cc1 (centres undefined)
CC50 at 24 h [1]: > 10 µM
Kd (Keap1/Nrf2): 1.27 µM

COc1ccc(S(=O)(=O)N(CC(N)=O)c2ccc(N(CC(N)=O)S(=O)(=O)c3ccc(SCCCCCN=C=S)cc3)c3ccccc23)cc1
CC50 at 24 h [1]: > 10 µM
Kd (Keap1/Nrf2): > 10 µM

COc1ccc(S(=O)(=O)N(CC(N)=O)c2ccc(N(CC(N)=O)S(=O)(=O)c3ccc(S(=O)(=O)CCOCCN=C=S)cc3)c3ccccc23)cc1
CC50 at 24 h [1]: > 10 µM
Kd (Keap1/Nrf2): 2.3 µM

C[S+]([O-])CCCCN=C=S (centres undefined) [SULFORAPHANE]
Activity (Peritoneal macrophage [2]): Active
Activity (Peritoneal macrophage [3]): Active
CC50 at 24 h [1]: > 10 µM
inhibition [4]: Active
Activity (Peritoneal macrophage [5]): Active
inhibition [6]: Active
inhibition [7]: Tde
inhibition [8]: Tde

COc1ccc(S(=O)(=O)N(CC(N)=O)c2ccc(N(CC(N)=O)S(=O)(=O)c3ccc([S+]([O-])CCOCCOCCOCCN=C=S)cc3)c3ccccc23)cc1 (centres undefined)
CC50 at 24 h [1]: > 10 µM
Kd (Keap1/Nrf2): > 10 µM

COc1ccc(S(=O)(=O)N(CC(N)=O)c2ccc(N(CC(N)=O)S(=O)(=O)c3ccc(S(=O)(=O)CCN=C=S)cc3)c3ccccc23)cc1
Activity (Peritoneal macrophage [2]): Active
Activity (Peritoneal macrophage [3]): Active
CC50 at 24 h [1]: > 10 µM
Activity (Peritoneal macrophage [5]): Active
Kd (Keap1/Nrf2): 0.658 µM

COc1ccc(S(=O)(=O)N(CC(N)=O)c2ccc(N(CC(N)=O)S(=O)(=O)c3ccc([S+]([O-])CCOCCN=C=S)cc3)c3ccccc23)cc1 (centres undefined)
CC50 at 24 h [1]: > 10 µM
Kd (Keap1/Nrf2): 3.08 µM

COc1ccc(S(=O)(=O)N(CC(N)=O)c2ccc(N(CC(N)=O)S(=O)(=O)c3ccc([S+]([O-])CCOCCOCCN=C=S)cc3)c3ccccc23)cc1 (centres undefined)
CC50 at 24 h [1]: > 10 µM
Kd (Keap1/Nrf2): 1.09 µM

COc1ccc(S(=O)(=O)N(CC(N)=O)c2ccc(N(CC(N)=O)S(=O)(=O)c3ccc(S(=O)(=O)CCOCCOCCN=C=S)cc3)c3ccccc23)cc1
CC50 at 24 h [1]: > 10 µM
Kd (Keap1/Nrf2): 1.22 µM

COc1ccc(S(=O)(=O)N(CC(N)=O)c2ccc(N(CC(N)=O)S(=O)(=O)c3ccc([S+]([O-])CCCN=C=S)cc3)c3ccccc23)cc1 (centres undefined)
Activity (Mus musculus [9]): Active
Activity (Peritoneal macrophage [2]): Active
inhibition (Mus musculus [10]): Dose-Dependent Effect
Activity (Peritoneal macrophage [3]): Active
Activity (Mus musculus [11]): Active
Activity (Mus musculus [12]): Active
Activity (Mus musculus [13]): Active
Activity (Mus musculus [14]): Active
CC50 at 24 h [1]: > 10 µM
inhibition [4]: Active
Activity (Peritoneal macrophage [5]): Active
inhibition [6]: Active
Kd (Keap1/Nrf2): 0.455 µM
inhibition (Mus musculus [15]): Dose-Dependent Effect
inhibition [7]: Tde
inhibition [8]: Tde
Activity (Mus musculus [16]): Active
Activity (Mus musculus [17]): Active

COc1ccc(S(=O)(=O)N(CC(N)=O)c2ccc(N(CC(N)=O)S(=O)(=O)c3ccc([S+]([O-])CCN=C=S)cc3)c3ccccc23)cc1 (centres undefined)
CC50 at 24 h [1]: > 10 µM
Kd (Keap1/Nrf2): 1.49 µM

COc1ccc(S(=O)(=O)N(CC(N)=O)c2ccc(N(CC(N)=O)S(=O)(=O)c3ccc(SCCOCCN=C=S)cc3)c3ccccc23)cc1
CC50 at 24 h [1]: > 10 µM
Kd (Keap1/Nrf2): 8.51 µM

COc1ccc(S(=O)(=O)N(CC(N)=O)c2ccc(N(CC(N)=O)S(=O)(=O)c3ccc(N=C=S)cc3)c3ccccc23)cc1
Activity (Peritoneal macrophage [2]): Active
Activity (Peritoneal macrophage [3]): Active
CC50 at 24 h [1]: > 10 µM
Activity (Peritoneal macrophage [5]): Active
Kd (Keap1/Nrf2): 0.106 µM
